Data: US20240116985A1, “STAPLED PEPTIDES AND METHODS THEREOF” (priority 2020, published 2024)
In brackets after ≈: the same amount, converted by molar mass. Read-outs that look alike come from different tables or passages of the source.

Tests used:
[1] = molecular target: T1, full-length beta-Catenin (Uniprot ID P35222) (Homo sapiens, UniProt P35222); assay: Fluorescence polarization IC50 (beta-catenin / 5FAM-TCF4 10-53 competition); type: binding
T1 construct: 10 nM full-length beta-Catenin (Uniprot ID P35222)
T1 sequence (P35222 1-781): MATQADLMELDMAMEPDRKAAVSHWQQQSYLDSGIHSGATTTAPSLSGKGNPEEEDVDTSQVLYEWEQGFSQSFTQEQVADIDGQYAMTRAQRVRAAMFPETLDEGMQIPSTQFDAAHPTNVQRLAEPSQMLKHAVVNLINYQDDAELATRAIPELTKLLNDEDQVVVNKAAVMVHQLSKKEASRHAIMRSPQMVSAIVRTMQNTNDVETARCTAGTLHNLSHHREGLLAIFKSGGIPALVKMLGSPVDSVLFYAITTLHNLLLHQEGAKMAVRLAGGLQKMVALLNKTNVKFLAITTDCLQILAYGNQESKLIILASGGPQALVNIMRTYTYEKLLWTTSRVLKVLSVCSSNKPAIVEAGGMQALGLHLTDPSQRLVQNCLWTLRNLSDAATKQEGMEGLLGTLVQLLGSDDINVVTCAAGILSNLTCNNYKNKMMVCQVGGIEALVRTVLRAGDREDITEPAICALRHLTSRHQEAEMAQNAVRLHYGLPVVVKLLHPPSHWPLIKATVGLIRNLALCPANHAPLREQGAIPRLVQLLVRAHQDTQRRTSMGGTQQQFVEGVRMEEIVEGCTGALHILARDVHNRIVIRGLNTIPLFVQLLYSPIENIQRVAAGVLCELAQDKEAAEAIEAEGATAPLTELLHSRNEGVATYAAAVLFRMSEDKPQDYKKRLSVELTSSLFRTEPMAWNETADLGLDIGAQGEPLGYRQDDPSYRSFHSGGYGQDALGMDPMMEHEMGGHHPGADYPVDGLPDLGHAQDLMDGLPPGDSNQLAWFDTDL

CHI Log D procedure = type: physicochemical; details: for CHI Log D: pH 7.4; for chromatographic logD: pH 7.4, CHI Log D
Solubility in PBS = type: physicochemical
Procedure, shortened: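 Steps: ultracentrifuge the peptide PBS solution, inject the supernatant on HPLC, inject a 50 μM peptide DMSO solution as reference, then calculate solubility as area ratio (PBS/DMSO) × 50 uM.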

[2] = molecular target: T2, beta-catenin/TCF4 engagement (Homo sapiens, UniProt P35222); assay: Nano-BRET target engagement assay (B-cat-Halo & TCF4-Luc in HEK293 cells); type: cell-based; details: for inhibition at 10 µM: HEK293, @ 10 uM, read-out: NanoBRET % inh @ 10 uM
T2 construct: expressed in transfected cells; host or cells: HEK293
T2 sequence (P35222 1-781): T1 sequence (P35222 1-781)

[3] = fluorescence polarization, read-out: beta-Catenin FP IC50
[4] = absolute IC50, read-out: NanoBRET Abs IC50

Row | Compound | IC50 [1, 3] [nM] | IC50 ([1]; read-out: FP EC50) [nM] | CHI Log D (CHI Log D procedure) | Solubility (Solubility in PBS) [µM] | IC50 [2, 4] [nM] | IC50 ([2]; Abs IC50, read-out: NanoBRET Abs IC50) [nM] | IC50 ([1]; read-out: beta-Catenin FP IC50) [nM] | IC50 ([2]; read-out: NanoBRET Abs IC50) [nM] | inhibition at 10 µM [2] [%] | chromatographic logD (CHI Log D procedure) | IC50 ([2]; read-out: NanoBRET IC50) [nM] | Solubility (Solubility in PBS; Solubility (uM)) [µM]
1 | CC(=O)N1CCC[C@]12CC=CCCCC1(CCCC=CCCCCCC[C@@](C)(C(=O)N[C@@H](Cc3ccccc3)C(=O)N[C@@H](Cc3csc4ccccc34)C(=O)N[C@@H](CO)C(N)=O)NC(=O)[C@H](CC(N)=O)NC(=O)[C@H](Cc3ccccc3)NC(=O)[C@H](C)NC(=O)[C@H](C)NC(=O)[C@H](CCC(=O)O)NC(=O)[C@H](CC(=O)O)NC1=O)NC(=O)[C@H](CC(C)C)NC(=O)[C@H](CC(=O)O)NC2=O (stereo partly drawn) [I-750, Ac-PL3-Asp-Leu-B5-Asp-Glu-Ala-Ala-Phe-Asn-S8-Phe-BztA-Ser-NH2] | 43 | 43 | 2.441 | 48 (≈ 87.7 µg/mL) | 7400 | – | – | – | – | – | – | –
2 | CC(=O)N1CCC[C@]12CC=CCCCC1(CCCC=CCCCCCC[C@@](C)(C(=O)N[C@@H](Cc3ccccc3)C(=O)N[C@@H](Cc3csc4ccccc34)C(=O)N[C@@H](CO)C(N)=O)NC(=O)[C@H](CC(N)=O)NC(=O)[C@H](Cc3ccccc3)NC(=O)[C@H](C)NC(=O)[C@H](C)NC(=O)[C@H](CCC(=O)O)NC(=O)[C@H](CC(=O)O)NC1=O)NC(=O)[C@H](CC(C)C)NC(=O)[C@H](CC(=O)O)NC2=O (stereo partly drawn) [I-751, Ac-PL3-Asp-Leu-B5-Asp-Glu-Ala-Ala-Phe-Asn-S8-Phe-BztA-Ser-NH2] | 29 | 29 | 2.513 | 48 (≈ 87.7 µg/mL) | 7100 | – | – | – | – | – | – | –
3 | CC(=O)N1CCC[C@]12CC=CCCCC1(CCCC=CCCCCCC[C@@](C)(C(=O)N[C@@H](Cc3ccccc3)C(=O)N[C@@H](Cc3csc4ccccc34)C(=O)N[C@@H](CC(N)=O)C(N)=O)NC(=O)[C@H](CC(N)=O)NC(=O)[C@H](Cc3ccccc3)NC(=O)[C@H](C)NC(=O)[C@H](C)NC(=O)[C@H](CCC(=O)O)NC(=O)[C@H](CC(=O)O)NC1=O)NC(=O)[C@H](CC(C)C)NC(=O)[C@H](CC(=O)O)NC2=O (stereo partly drawn) [I-753, Ac-PL3-Asp-Leu-B5-Asp-Glu-Ala-Ala-Phe-Asn-S8-Phe-BztA-Asn-NH2] | 14 | 14 | 2.432 | 50 (≈ 92.8 µg/mL) | 10000 | 10000 | – | – | – | – | – | –
4 | CC(=O)N1CCC[C@]12CC=CCCCC1(CCCC=CCCCCOC(=O)N3CC[C@@](C(=O)N[C@@H](Cc4ccsc4)C(=O)N[C@@H](Cc4csc5ccccc45)C(=O)N[C@@H](CCC(N)=O)C(N)=O)(C3)NC(=O)[C@H](CC(N)=O)NC(=O)[C@H](Cc3ccccc3)NC(=O)[C@H](C)NC(=O)[C@H](C)NC(=O)[C@H](CC(=O)O)NC(=O)[C@H](CC(=O)O)NC1=O)NC(=O)[C@H](CC(C)(C)C)NC(=O)[C@H](CC(=O)O)NC2=O (stereo partly drawn) [I-767, Ac-PL3-Asp-Npg-B5-Asp-Asp-Ala-Ala-Phe-Asn-PyrS3-3Thi-BztA-Gln-NH2] | – | 12 | 2.004 | 50 (≈ 96.6 µg/mL) | – | – | 12 | 37200 | – | – | – | –
5 | COc1ccccc1C[C@H](NC(=O)[C@]12CCN(C1)C(=O)OCCCC=CCCCC1(CCCC=CC[C@]3(CCCN3C(C)=O)C(=O)N[C@@H](CC(=O)O)C(=O)N[C@@H](CC(C)(C)C)C(=O)N1)C(=O)N[C@@H](CC(=O)O)C(=O)N[C@@H](CC(=O)O)C(=O)N[C@@H](C)C(=O)N[C@@H](C)C(=O)N[C@@H](Cc1ccccc1)C(=O)N[C@@H](CC(N)=O)C(=O)N2)C(=O)N[C@@H](Cc1csc2ccccc12)C(=O)N[C@@H](CCC(N)=O)C(N)=O (stereo partly drawn) [I-780, Ac-PL3-Asp-Npg-B5-Asp-Asp-Ala-Ala-Phe-Asn-PyrS2-2OMeF-BztA-Gln-NH2] | – | – | – | 50 (≈ 97.1 µg/mL) | – | – | 9 | 20700 | – | 2.08 | 17100 | –

The remaining compounds from weak to strong by IC50 ([1]; read-out: beta-Catenin FP IC50), led by results:

Row | IC50 [1, 3] [nM] | IC50 ([1]; read-out: FP EC50) [nM] | CHI Log D (CHI Log D procedure) | Solubility (Solubility in PBS) [µM] | IC50 [2, 4] [nM] | IC50 ([2]; Abs IC50, read-out: NanoBRET Abs IC50) [nM] | IC50 ([1]; read-out: beta-Catenin FP IC50) [nM] | IC50 ([2]; read-out: NanoBRET Abs IC50) [nM] | inhibition at 10 µM [2] [%] | chromatographic logD (CHI Log D procedure) | IC50 ([2]; read-out: NanoBRET IC50) [nM] | Solubility (Solubility in PBS; Solubility (uM)) [µM] | Compound
6 | – | – | – | – | – | – | 8 | 11200 | – | 2.04 | – | 43 (≈ 82.5 µg/mL) | CC(=O)N1CCC[C@]12CC=CCCCC1(CCCC=CCCCOC(=O)N3CC[C@@](C(=O)N[C@@H](Cc4cccs4)C(=O)N[C@@H](Cc4csc5ccccc45)C(=O)N[C@@H](CCC(N)=O)C(N)=O)(C3)NC(=O)[C@H](CC(N)=O)NC(=O)[C@H](Cc3ccccc3)NC(=O)[C@H](C)NC(=O)[C@H](C)NC(=O)[C@H](CC(=O)O)NC(=O)[C@H](CC(=O)O)NC1=O)NC(=O)[C@H](CC(C)(C)C)NC(=O)[C@H](CC(=O)O)NC2=O (stereo partly drawn) [I-778, Ac-PL3-Asp-Npg-B5-Asp-Asp-Ala-Ala-Phe-Asn-PyrS2-2Thi-BztA-Gln-NH2]
7 | – | – | – | – | – | – | 7 | 6200 | 50.9 | 2.19 | 7500 | 48 (≈ 93.4 µg/mL) | CC(=O)N1CCC[C@]12CC=CCCCC1(CCCC=CCCCOC(=O)N3CC[C@@](C(=O)N[C@@H](Cc4ccccc4Cl)C(=O)N[C@@H](Cc4csc5ccccc45)C(=O)N[C@@H](CCC(N)=O)C(N)=O)(C3)NC(=O)[C@H](CC(N)=O)NC(=O)[C@H](Cc3ccccc3)NC(=O)[C@H](C)NC(=O)[C@H](C)NC(=O)[C@H](CC(=O)O)NC(=O)[C@H](CC(=O)O)NC1=O)NC(=O)[C@H](CC(C)(C)C)NC(=O)[C@H](CC(=O)O)NC2=O (stereo partly drawn) [I-783, Ac-PL3-Asp-Npg-B5-Asp-Asp-Ala-Ala-Phe-Asn-PyrS2-2C1F-BztA-Gln-NH2]
8 | – | 7 | 2.092 | 47 (≈ 91.2 µg/mL) | – | – | 6 | > 20000 | 5.1 | – | – | – | CC(=O)N1CCC[C@]12CC=CCCCC1(CCCC=CCCCCOC(=O)N3CC[C@@](C(=O)N[C@@H](Cc4ccsc4)C(=O)N[C@@H](Cc4csc5ccccc45)C(=O)N[C@@H](Cc4c[nH]cn4)C(N)=O)(C3)NC(=O)[C@H](CC(N)=O)NC(=O)[C@H](Cc3ccccc3)NC(=O)[C@H](C)NC(=O)[C@H](C)NC(=O)[C@H](CC(=O)O)NC(=O)[C@H](CC(=O)O)NC1=O)NC(=O)[C@H](CC(C)(C)C)NC(=O)[C@H](CC(=O)O)NC2=O (stereo partly drawn) [I-775, Ac-PL3-Asp-Npg-B5-Asp-Asp-Ala-Ala-Phe-Asn-PyrS3-3Thi-BztA-His-NH2]
9 | – | – | – | – | – | – | 6 | 12200 | – | 2.21 | – | 38 (≈ 73.5 µg/mL) | CC(=O)N1CCC[C@]12CC=CCCCC1(CCCC=CCCCOC(=O)N3CC[C@@](C(=O)N[C@@H](Cc4ccccc4C)C(=O)N[C@@H](Cc4csc5ccccc45)C(=O)N[C@@H](Cc4c[nH]cn4)C(N)=O)(C3)NC(=O)[C@H](CC(N)=O)NC(=O)[C@H](Cc3ccccc3)NC(=O)[C@H](C)NC(=O)[C@H](C)NC(=O)[C@H](CC(=O)O)NC(=O)[C@H](CC(=O)O)NC1=O)NC(=O)[C@H](CC(C)(C)C)NC(=O)[C@H](CC(=O)O)NC2=O (stereo partly drawn) [I-782, Ac-PL3-Asp-Npg-B5-Asp-Asp-Ala-Ala-Phe-Asn-PyrS2-2MeF-BztA-His-NH2]
10 | – | – | – | 50 (≈ 96.1 µg/mL) | – | – | 5 | 19800 | 24.5 | 2.15 | 14400 | – | CC(=O)N1CCC[C@]12CC=CCCCC1(CCCC=CCCCOC(=O)N3CC[C@@](C(=O)N[C@@H](Cc4ccccc4)C(=O)N[C@@H](Cc4csc5ccccc45)C(=O)N[C@@H](Cc4c[nH]cn4)C(N)=O)(C3)NC(=O)[C@H](CC(N)=O)NC(=O)[C@H](Cc3ccccc3)NC(=O)[C@H](C)NC(=O)[C@H](C)NC(=O)[C@H](CC(=O)O)NC(=O)[C@H](CC(=O)O)NC1=O)NC(=O)[C@H](CC(C)(C)C)NC(=O)[C@H](CC(=O)O)NC2=O (stereo partly drawn) [I-777, Ac-PL3-Asp-Npg-B5-Asp-Asp-Ala-Ala-Phe-Asn-PyrS2-Phe-BztA-His-NH2]
11 | – | – | – | – | – | – | 5 | – | 24 | 2.16 | 11600 | 41 (≈ 80 µg/mL) | COc1ccccc1C[C@H](NC(=O)[C@]12CCN(C1)C(=O)OCCCC=CCCCC1(CCCC=CC[C@]3(CCCN3C(C)=O)C(=O)N[C@@H](CC(=O)O)C(=O)N[C@@H](CC(C)(C)C)C(=O)N1)C(=O)N[C@@H](CC(=O)O)C(=O)N[C@@H](CC(=O)O)C(=O)N[C@@H](C)C(=O)N[C@@H](C)C(=O)N[C@@H](Cc1ccccc1)C(=O)N[C@@H](CC(N)=O)C(=O)N2)C(=O)N[C@@H](Cc1csc2ccccc12)C(=O)N[C@@H](Cc1c[nH]cn1)C(N)=O (stereo partly drawn) [I-781, Ac-PL3-Asp-Npg-B5-Asp-Asp-Ala-Ala-Phe-Asn-PyrS2-2OMeF-BztA-His-NH2]
